Among the data in ChEMBL document CHEMBL3507680, “University of Dundee, Gates Library screen for HepG2 cell viability” are cytotoxicity values, retold here.

This data set in a line: Human HepG2 cell viability assay in 384 well format. The class given is toxicity, cell-based. Also on record: dose 125 nL, time 70.5 hour; cytotoxicity at 70.5 h: concentration not given beside the values. The note with it: HepG2 cells, read-out: Inhibition.

Each structure is given as a SMILES string.

On to `CCN(C)[C@H]1CN(C(=O)c2cccc(N3CCS(=O)(=O)CC3)c2)C[C@@H]1O`, for which the cytotoxicity at 70.5 h is -7.37%. The same measure for `Cn1nccc1NC(=O)Cn1ccc(-c2ccc3c(c2)OCO3)n1`: -22.6%; for `CCN(CCO)C[C@@H]1CN(C(=O)c2sc3ccccc3c2C)C[C@@H]1CO`: 8.11%; for `COc1cccc2c1OCC(C(=O)NCCc1nc3c(s1)CCC3)C2` (stereo not drawn): -5.62%. The same measure for `O=C(c1cccc(-n2cccn2)c1)N1CCCOC(Cn2cccn2)C1` (stereo not drawn): 12.9%; for `CSc1ccccc1C(=O)N1C[C@@H](N(C)C)[C@H](c2ccc(C)cc2)C1`: -1.92%; for `CN1CCC(Cc2noc(CC3CC3)n2)CC1`: -7.67%. The same measure for `O=C(c1ncccc1O)N1CCc2c(nc(-c3ccncc3)[nH]c2=O)C1`: 9.03%; for `O=C(NCCn1cc(Cl)cn1)C1CCN(C(=O)C2CC2)CC1`: 2.7%; for `Cn1ccc2ccc(C(=O)N3CCC[C@H]3C(=O)N3CCOCC3)cc21`: -11.1%.

For the compound `COc1ccccc1N1CCN(Cc2ncc(C)c(OC)c2C)CC1=O`, the cytotoxicity at 70.5 h is -6.77%. The same measure for `COc1ccc2c(c1)CC(C(=O)N(C)Cc1noc3c1CCCC3)CO2` (stereo not drawn): -4.86%. The same measure for `Cc1cnc(C(=O)N2CCCC(c3nccn3Cc3cscn3)C2)cn1` (stereo not drawn): -3.23%; for `CN(Cc1n[nH]c2c1CCC2)C(=O)c1cc(-c2cccn2C)n[nH]1`: 25.6%; for `CN(CC1(CO)CCCC1)c1nc2c(c(=O)[nH]1)Cc1ccccc1OC2`: -10%.

With `Cc1noc(C)c1CN1CC2(CCN(Cc3c[nH]cn3)CC2)CC1=O`, the cytotoxicity at 70.5 h is -2.12%.

Turning to `CC(C)[C@@H]1CN(CC(=O)NCc2ccco2)C[C@H]1NS(=O)(=O)N(C)C`, the cytotoxicity at 70.5 h was -3.9%. The same measure for `O=S(=O)(c1ccc2c(c1)OCCO2)N1CCc2ccccc2C1`: -7.73%. For `CC(C)C1CN(C(=O)c2cc(=O)[nH]c(=O)[nH]2)CCCN1CC1CC1` (stereo not drawn), the cytotoxicity at 70.5 h was -0.864%. For `Cc1ccccc1CSc1nc(N)cc(N2CCCC(C(N)=O)C2)n1` (stereo not drawn), the cytotoxicity at 70.5 h was -2.56%. The same measure for `CCc1ocnc1C(=O)N1CCC(C2CCN(c3ncccn3)CC2)C1` (stereo not drawn): 1.07%. The same measure for `CC(=O)N[C@@H]1CN(C2CCN(c3cccc(Cl)c3)CC2)C[C@H]1C(C)C`: -7.17%. With `CC(C)C(O)C(=O)N1CCC2(CC1)c1nc[nH]c1CCN2S(C)(=O)=O` (stereo not drawn), the cytotoxicity at 70.5 h is -6.39%. The same measure for `Cc1ccccc1CN(CCN(C)C)Cc1ccc(S(C)(=O)=O)cc1`: 4.23%. The same measure for `NC(=O)c1cc2c(nc1Oc1cccc(CN3CCCC3)c1F)CCC2`: -13.8%; for `CS(=O)(=O)NCCNc1ncnc2cccc(F)c12`: -6.37%.

For the compound `Cc1ccccc1CCC1CCCN(Cc2c(C)[nH]c(=O)[nH]c2=O)C1` (stereo not drawn), the cytotoxicity at 70.5 h is -8.6%.

Take `COCc1noc(CNc2nc(C3CCCC3)nc3c2CCNCC3)n1`: the cytotoxicity at 70.5 h was -10.6%.

With `Cc1cc(N(C)CCn2ccnc2C)n2nccc2n1`, the cytotoxicity at 70.5 h is -11.6%. The same measure for `CCCSCC(=O)N1C[C@H]2CC[C@@H]1CN(Cc1cccnc1)C2`: 6.46%; for `Nc1cc(-c2cccc3ccnn23)ccn1`: -2.42%. As to `COc1cc2c(cc1-c1nc3c(cnn3C(C)C(C)C)[nH]1)OCO2` (stereo not drawn), the cytotoxicity at 70.5 h is -0.404%.

For the compound `CC(=O)NCc1nnc2n1CCN(c1ncnc3c1CCC3)CC2`, the cytotoxicity at 70.5 h is 25.3%. The same measure for `O=C(NCC(F)F)c1ccc(S(=O)(=O)NCCc2ccncc2)cc1`: -11.1%; for `Cc1ccc(OC2(C(=O)NC(C)Cc3ccsc3)CCNCC2)cc1` (stereo not drawn): 7.16%; for `Cc1cc(C(F)(F)F)nc(CNC(=O)CCn2cccn2)n1`: -6.34%. On to `COc1ccc(F)c(F)c1CN1CCN(CC(C)C)C(=O)C1C` (stereo not drawn), for which the cytotoxicity at 70.5 h is 25%. The same measure for `Cc1nn(C)c(C)c1-c1nc2cc(S(=O)(=O)N3CCCC3)ccc2n1C`: -0.406%; for `Nc1cc(N2CCCC(Cc3ccc(F)cc3F)(C(=O)O)C2)ncn1` (stereo not drawn): -5.98%. The same measure for `Cc1cccc(N2CCN(C(=O)C3CC4(CCNCC4)CN3)CC2)n1` (stereo not drawn): 5.27%. The same measure for `O=C(CCc1cc(O)no1)N1CCC(Cc2ccc(F)cc2)CC1`: -12%; for `CCN1CCN(C[C@@H]2CN(c3ncc(Cl)cc3Cl)C[C@@H]2CO)CC1`: -6.63%; for `C/C=C(\C)CN1CCCn2nc(CNC(=O)C3CCC3)cc2C1`: -11.6%. For the compound `O=c1[nH]cccc1-c1nccc(C2(c3ccccc3Cl)CCNCC2)n1`, the cytotoxicity at 70.5 h came out at 29.1%. On to `COc1ccc(NC(=O)CCN2CC=C(c3cnn(C)c3)CC2)cc1Cl`, for which the cytotoxicity at 70.5 h stood at 5.66%. The same measure for `CCN(Cc1cc(Cl)ccc1OC)Cc1ncnn1CC`: 1.58%. Turning to `O=C1Cc2cc(NC(=O)N3CCCN(Cc4cccs4)CC3)ccc2N1`, the cytotoxicity at 70.5 h is -4.49%. The same measure for `CCN(Cc1cc(-c2ccccn2)no1)C1CCS(=O)(=O)C1` (stereo not drawn): -9.24%. As to `CCNC(=O)C1CCN(c2nc(-c3ccco3)nc3c2CCNCC3)C1` (stereo not drawn), the cytotoxicity at 70.5 h was -7.78%. For the compound `Clc1cccc2c3c([nH]c12)CCN(Cc1cc2n(n1)CCCNC2)C3`, the cytotoxicity at 70.5 h amounted to 35.7%. Take `CCCN1CCN(C(=O)c2cncnc2C)[C@H]2CS(=O)(=O)C[C@H]21`: the cytotoxicity at 70.5 h was determined as 3.92%. The same measure for `CCOc1ccc(C(=O)CCC(=O)N(C)Cc2cnccn2)cc1C`: 10.8%. The same measure for `Cc1cc(C)cc(N2CCN(Cc3cccc(CCN)c3)CC2=O)c1`: -2.46%; for `COc1ncc(-c2cc(NC3CCCC3)nc3[nH]ccc23)c(OC)n1`: -12%.

On to `CC1=NOC(C(=O)N2CCC(O)(c3ccc4nc(C)ccc4c3)CC2)C1` (stereo not drawn), for which the cytotoxicity at 70.5 h is -6.17%. The same measure for `C=C(C)COc1cccc(CNCCc2nc(N)cc(O)n2)c1`: -9.19%; for `O=C(NC1CCOCC1)c1cccc(C2CCCNC2)c1` (stereo not drawn): -10.4%.

With `c1nc2c(c(NCCCn3cncn3)n1)CCN(CC1CCOC1)CC2` (stereo not drawn), the cytotoxicity at 70.5 h was -2.03%.

With `CCC(O)Cn1cc(C2=CCN(Cc3cc(O)nc(C)n3)CC2)cn1` (stereo not drawn), the cytotoxicity at 70.5 h worked out at 10.8%. As for `CCc1cc(N2CCC(NCCc3nc(C)c(C)s3)CC2)nc(C)n1`, the cytotoxicity at 70.5 h was -12.2%. The same measure for `CC(C)[C@H]1CN(Cc2ccccc2C#N)C[C@@H]1NC(=O)C1CCOCC1`: -13.1%; for `CC(Oc1ccc2c(c1)OCO2)C(=O)N1CCC(N2CCCC2)CC1` (stereo not drawn): -4.56%. Take `CCC(NC(=O)c1cc(CC(C)C)nn1C)c1ccnn1C` (stereo not drawn): the cytotoxicity at 70.5 h is -10.3%.

For `OC1(CN2CCN(c3cccc(C(F)(F)F)c3)CC2)CNCCOC1` (stereo not drawn), the cytotoxicity at 70.5 h is -12%. The same measure for `Cc1cnc(NCc2ccncc2)nc1-c1cnn(C)c1`: 12.6%; for `CCN1CCN(C(=O)CCC2CCN(C(=O)CCSC)CC2)CC1`: 22.6%; for `CCc1cc(N2CCC(NC3CN4CCC3CC4)CC2)nc(N(C)C)n1` (stereo not drawn): 29.4%. The same measure for `CC(C)C(C)n1nccc1NC(=O)Cn1cnc2ccccc21` (stereo not drawn): -12.4%.
